Experimental data published in PubChem BioAssay AID1963858 (Molecular Pharmacology Branch, DTP, NCI, 2024).

Tested on: HOP-62 multicell spheroids with HUVEC/MSC, viability
Assay: Anticancer human tumor HOP-62 cell line growth inhibition [KRAS2];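 note: viability read after a week of compound exposure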;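 for viability, T/C: 100% = DMSO vehicle-treated spheroids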
Details: for IC50: curve of first compound; for viability, T/C: stronger effect = lower value
From the text: Multicellular complex tumor spheroid response to RAS pathway inhibitors in combination with a targeted agents in patient-derived cell lines with oncogenic KRAS variants from multiple cancer types
A high-throughput screen of multi-cell type tumor spheroids was designed to identify active combinations of targeted small molecules and KRAS pathway inhibitors. Complex spheroids include a stromal component modeled by human endothelial cells (HUVEC) and fibroblasts modeled by human mesenchymal stem cells (MSCs). The concentration ranges selected for each drug and investigational agent were based upon clinically achievable concentrations if the clinical Cmax of the agent was known.
Compounds. The drugs and investigational agents: BI-3406 (NSC825286), BAY-293 (NSC824723), batoprotafib (TNO155; NSC825523), sotorasib (AMG 510; NSC818433), MRTX1257 (NSC819558), elimusertib (BAY 1895344; NSC800525), molibresib (GSK525762; NSC774829), temuterkib (LY3214996; NSC803410), venetoclax (NSC766270), alisertib (NSC759677), olaparib (NSC753686), talazoparib (NSC767125), erdafitinib (NSC781556), ipatasertib (NSC767898), cabozantinib (NSC761068), nintedanib (NSC756659), abemaciclib (NSC768073), docetaxel (NSC628503), trametinib (NSC758246), and sapanisertib (NSC764658) were obtained from the National Cancer Institute (NCI) Developmental Therapeutics Program Chemical Repository. The FDA-approved anticancer drug set is available from the Developmental Therapeutics Program. […] The stock solutions were prepared in dimethyl sulfoxide (DMSO, Sigma-Aldrich, St. Louis, MO, cat. D2650) at 800-fold the tested concentration and stored at -70 degrees C prior to their use. All drugs and investigational agents were tested over a range starting from a high concentration at or near the clinical Cmax and decreasing in half-log increments. If the clinical Cmax for an agent had not been determined, the highest concentration tested was 10 microM.
Cell Culture. All cells were maintained in an incubator at 37 degrees C and 5% CO2 with 95% humidity. The PDC lines were cultured according to standard operating procedures established by the NCI PDMR (https://pdmr.cancer.gov/sops/default.htm). Briefly, all PDCs were thawed and cultured in Matrigel-coated flasks prepared with a working solution of 1X Ham's F-12 nutrient mix, without supplementation (Invitrogen, Waltham, MA, cat. 11765054), 100 U/mL penicillin-streptomycin (Invitrogen, cat. 15140122), and 2.5% Matrigel (Corning Inc., Corning, NY, cat. 354248) for the first three passages. All PDCs were cultured in complete DMEM/F-12 media containing advanced DMEM/F-12 (Invitrogen, cat. 12634028), 4.9% defined fetal bovine serum, heat inactivated (HyClone Laboratories Inc., Logan, UT, cat. SH30070.03HI), 389 ng/mL hydrocortisone (Sigma-Aldrich, cat. H4001), 9.7 ng/mL human EGF recombinant protein (Invitrogen, cat. PHG0313), 23.4 microg/mL adenine (Sigma-Aldrich, cat. A2786), 97.3 U/mL penicillin-streptomycin (Invitrogen, cat. 15140122), 1.9 mM L-glutamine (Invitrogen, cat. 25030081), and 9.7 microM Y-27632 dihydrochloride (Tocris Bioscience, Bristol, United Kingdom, cat. 1254). The PDCs were cultured in complete DMEM/F12 media without 9.7 microM Y-27632 dihydrochloride for at least two passages prior to the screen. The established cell line HOP-62 was cultured in RPMI 1640 medium, HEPES (Invitrogen, cat. 22400105) with 10% defined fetal bovine serum (HyClone Laboratories Inc., cat. SH30070.03) and 2 mM L-glutamine (Invitrogen, cat. 25030081). The pooled donor HUVEC were cultured in endothelial cell growth medium 2 (PromoCell, Heidelberg, Germany, cat. C-22011) and the hMSC were cultured in mesenchymal stem cell growth medium 2 (PromoCell, cat. C-28009). For all experiments, HUVEC and hMSC were used at passages </=5, while the malignant cell lines were used at passages </=15. […]

[1] = second compound 0.1 µM, first compound 0.0316 µM
[2] = second compound 0.1 µM, first compound 0.1 µM
[3] = second compound 0.1 µM, first compound 0.316 µM
[4] = second compound 0.1 µM, first compound 1 µM
[5] = second compound 0.1 µM, first compound 3.16 µM
[6] = second compound 0.1 µM, first compound 10 µM
[7] = second compound 0.316 µM, first compound 0.0316 µM
[8] = second compound 0.316 µM, first compound 0.1 µM
[9] = second compound 0.316 µM, first compound 0.316 µM
[10] = second compound 0.316 µM, first compound 1 µM
[11] = second compound 0.316 µM, first compound 3.16 µM
[12] = second compound 0.316 µM, first compound 10 µM
[13] = second compound 1 µM, first compound 0.0316 µM
[14] = second compound 1 µM, first compound 0.1 µM
[15] = second compound 1 µM, first compound 0.316 µM
[16] = second compound 1 µM, first compound 1 µM
[17] = second compound 1 µM, first compound 3.16 µM
[18] = second compound 1 µM, first compound 10 µM
[19] = second compound 3.16 µM, first compound 0.0316 µM
[20] = second compound 3.16 µM, first compound 0.1 µM
[21] = second compound 3.16 µM, first compound 0.316 µM
[22] = second compound 3.16 µM, first compound 1 µM
[23] = second compound 3.16 µM, first compound 3.16 µM
[24] = second compound 3.16 µM, first compound 10 µM
[25] = second compound 10 µM, first compound 0.0316 µM
[26] = second compound 10 µM, first compound 0.1 µM
[27] = second compound 10 µM, first compound 0.316 µM
[28] = second compound 10 µM, first compound 1 µM
[29] = second compound 10 µM, first compound 3.16 µM
[30] = second compound 10 µM, first compound 10 µM

Structure (SMILES)	IC50 (second compound 0.1 µM) [nM]	IC50 (second compound 0.316 µM) [nM]	IC50 (second compound 1 µM) [nM]	IC50 (second compound 3.16 µM) [nM]	viability, T/C [1] [%]	viability, T/C [2] [%]	viability, T/C [3] [%]	viability, T/C [4] [%]	viability, T/C [5] [%]	viability, T/C [6] [%]	viability, T/C [7] [%]	viability, T/C [8] [%]	viability, T/C [9] [%]	viability, T/C [10] [%]	viability, T/C [11] [%]	viability, T/C [12] [%]	viability, T/C [13] [%]	viability, T/C [14] [%]	viability, T/C [15] [%]	viability, T/C [16] [%]	other results
CC1(C)CCC(CN2CCN(c3ccc(C(=O)NS(=O)(=O)c4ccc(NCC5CCOCC5)c([N+](=O)[O-])c4)c(Oc4cnc5[nH]ccc5c4)c3)CC2)=C(c2ccc(Cl)cc2)C1 + CNCc1ccccc1-c1csc(C(C)Nc2nc(C)nc3cc(OC)c(OC)cc23)c1	5710	4570	3380	< 31.6	92.1	89.5	82.5	95.3	71.6	29.5	81.2	77	76.5	81.6	61.8	24.9	90.1	76.2	67.8	73.1	IC50 (second compound 10 µM): < 31.6 nM; viability, T/C [17]: 54%; viability, T/C [18]: 14.9%; viability, T/C [19]: 1.65%; viability, T/C [20]: 25.9%; viability, T/C [21]: 17.9%; viability, T/C [22]: 40.3%; viability, T/C [23]: 13.5%; viability, T/C [24]: 1.45%; viability, T/C [25]: 0.12%; viability, T/C [26]: 0.16%; viability, T/C [27]: 0.16%; viability, T/C [28]: 0.18%; viability, T/C [29]: 0.15%; viability, T/C [30]: 0.22%
COC(=O)c1ccc2c(C(=Nc3ccc(N(C)C(=O)CN4CCN(C)CC4)cc3)c3ccccc3)c(O)[nH]c2c1 + CNCc1ccccc1-c1csc(C(C)Nc2nc(C)nc3cc(OC)c(OC)cc23)c1	246	49.3	< 31.6	< 31.6	68.1	64.7	40.1	34.6	29.5	5.99	48.3	54.6	35.6	31.4	16.1	3.78	43	32.2	38.6	29.8	IC50 (second compound 10 µM): < 31.6 nM; viability, T/C [17]: 0.17%; viability, T/C [18]: 0.9%; viability, T/C [19]: 12.6%; viability, T/C [20]: 0.12%; viability, T/C [21]: 0.09%; viability, T/C [22]: 0.09%; viability, T/C [23]: 0.07%; viability, T/C [24]: 0.1%; viability, T/C [25]: 0.12%; viability, T/C [26]: 0.16%; viability, T/C [27]: 45.8%; viability, T/C [28]: 0.09%; viability, T/C [29]: 0.08%; viability, T/C [30]: 0.35%
Cn1nccc1Nc1nccc(-c2cc3c(s2)C(C)(C)N(CCN2CCOCC2)C3=O)n1 + C=CC(=O)N1CCN(c2nc(OCC3CCCN3C)nc3c2CCN(c2cccc4cccc(C)c24)C3)CC1CC#N	144	< 31.6	< 31.6	< 31.6	58.2	53	39.3	17.1	17.2	17	45.3	39.2	18.1	18	13.6	16	27.7	30.3	13.1	12.3	IC50 (second compound 0.0316 µM): 265 nM; viability, T/C (second compound 0.0316 µM, first compound 0.0316 µM): 84.1%; viability, T/C (second compound 0.0316 µM, first compound 0.1 µM): 68%; viability, T/C (second compound 0.0316 µM, first compound 0.316 µM): 50.4%; viability, T/C (second compound 0.0316 µM, first compound 1 µM): 20.3%; viability, T/C (second compound 0.0316 µM, first compound 3.16 µM): 22.4%; viability, T/C (second compound 0.0316 µM, first compound 10 µM): 22.7%; viability, T/C [17]: 11.3%; viability, T/C [18]: 12.6%; viability, T/C [19]: 2.34%; viability, T/C [20]: 0.65%; viability, T/C [21]: 1.84%; viability, T/C [22]: 4.87%; viability, T/C [23]: 4.21%; viability, T/C [24]: 0.35%
